This is an account of results in patent US9353091B2 (priority 2009, dated 2016).

Some results are limits rather than exact numbers.

In assay [1] the test system is genotype 1b-Con1 subgenomic replicon cell line. The assay is described as follows: HCV Polymerase Replicon Assay (genotype 1b-Con1, luciferase reporter). Format: cell-based. The note with it: Hepatitis C virus, 72 h, 1b-Con1 replicon, three days. For orientation: In antiviral work, replicon cells carry a viral genome segment that copies itself.
The target in assay [2] is T1, HCV polymerase 1B (Δ21 NS5B) (Hepatitis C virus genotype 1b, UniProt P26663).
T1 construct: 20 to 50 nM Δ21 NS5B
As to the kind of experiment: HCV Polymerase Inhibition Assay (1b). Format: biochemical. Here is the method: (§1) Reaction volume was 50 μL. The reaction was terminated by the addition of 1 volume of 4 mM spermine in 10 mM Tris-Cl pH 8.0, 1 mM EDTA. After incubation for at least 15 minutes at room temperature, the precipitated RNA was captured by filtering through a GF/B filter (Millipore) in a 96 well format. The filter plate was washed three times with 200 μL, each of 2 mM spermine, 10 mM Tris-Cl pH 8.0, 1 mM EDTA, and 2 times with ethanol. After air-drying, 30 μL, of Microscint 20 scintillation cocktail (Packard) was added to each well, and the retained cpm were determined by scintillation counting. […] Retained cpm were plotted vs. inhibitor concentration and fit to equation 1 using non-linear regression (ref. 1) to obtain the IC50 values: Retained cpm=A[sqrt{(IC50+It−Et)^2+4*IC50*Et}−(IC50+It−Et)]
(§2) Ref. Morrison, J. F. and S. R. Stone. 1985. Approaches to the study and analysis of the inhibition of enzymes by slow- and tight-binding inhibitors. Comments Mol. Cell. Biophys. 2: 347-368.
(§3) The sequence of the template RNA used was: 5′-[…] […] […] […] […] […] […] […] […] […] […] […] […] […] […] […] […]-3′ (SEQ ID NO: 1)

The target of assay [3] is T2, HCV polymerase 1A (Δ21 NS5B) (Hepatitis C virus genotype 1a, UniProt P27958).
T2 construct: 20 to 50 nM Δ21 NS5B
As to the kind of experiment: HCV Polymerase Inhibition Assay (1a). The class given is biochemical. How it is done: as §1, §2, §3

Assay [4] has as its system genotype 1a-H77 subgenomic replicon cell line. As to the kind of experiment: HCV Polymerase Replicon Assay (genotype 1a-H77, luciferase reporter). The class given is cell-based. The note with it: Hepatitis C virus, 72 h, 1a-H77 replicon, three days.

T2 sequence (P27958 2421-2990, stated change not applied): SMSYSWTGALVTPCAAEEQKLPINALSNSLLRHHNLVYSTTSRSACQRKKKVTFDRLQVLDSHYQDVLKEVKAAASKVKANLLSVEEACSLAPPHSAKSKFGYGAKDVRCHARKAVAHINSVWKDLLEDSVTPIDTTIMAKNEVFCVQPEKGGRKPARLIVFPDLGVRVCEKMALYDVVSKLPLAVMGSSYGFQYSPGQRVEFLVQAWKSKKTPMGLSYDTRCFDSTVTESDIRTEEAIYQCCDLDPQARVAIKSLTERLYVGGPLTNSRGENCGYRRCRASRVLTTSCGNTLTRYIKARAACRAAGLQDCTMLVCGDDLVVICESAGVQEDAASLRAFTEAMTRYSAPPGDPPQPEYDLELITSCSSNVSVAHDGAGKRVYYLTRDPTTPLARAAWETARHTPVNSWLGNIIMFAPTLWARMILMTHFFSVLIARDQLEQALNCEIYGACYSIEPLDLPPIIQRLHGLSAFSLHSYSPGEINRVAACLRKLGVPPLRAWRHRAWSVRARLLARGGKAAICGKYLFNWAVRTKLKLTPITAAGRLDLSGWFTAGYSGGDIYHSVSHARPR
T1 sequence (P26663 2420-2989, stated change not applied): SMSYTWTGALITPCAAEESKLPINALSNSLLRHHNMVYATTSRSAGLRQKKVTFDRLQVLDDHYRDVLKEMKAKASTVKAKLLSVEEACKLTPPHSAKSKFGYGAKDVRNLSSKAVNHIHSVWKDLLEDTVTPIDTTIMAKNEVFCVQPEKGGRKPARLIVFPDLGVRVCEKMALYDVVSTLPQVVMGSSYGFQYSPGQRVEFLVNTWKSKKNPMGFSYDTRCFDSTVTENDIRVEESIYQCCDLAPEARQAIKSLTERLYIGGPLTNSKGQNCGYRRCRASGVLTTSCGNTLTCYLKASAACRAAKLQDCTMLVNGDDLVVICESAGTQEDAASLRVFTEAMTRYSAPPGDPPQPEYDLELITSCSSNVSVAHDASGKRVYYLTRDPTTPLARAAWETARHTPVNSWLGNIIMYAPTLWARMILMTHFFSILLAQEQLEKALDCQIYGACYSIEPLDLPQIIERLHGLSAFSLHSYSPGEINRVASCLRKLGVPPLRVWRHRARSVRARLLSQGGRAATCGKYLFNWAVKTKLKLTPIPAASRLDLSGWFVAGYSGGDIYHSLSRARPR

The term EC50 denotes the concentration needed to bring the measured effect to its halfway point. By IC50 is commonly meant the concentration that gives 50% inhibition. High values mean weaker potency, low ones greater potency. Take `COc1c(-c2ccc3c(c2)CC=C3CNS(C)(=O)=O)cc(-c2c[nH]c(=O)[nH]c2=O)cc1-c1ccc(C)o1` [compound 44, N-((6-(5-(2,4-dioxo-1,2,3,4-tetrahydropyrimidin-5-yl)-2-methoxy-3-(5-methylfuran-2-yl)phenyl)-1H-inden-3-yl)methyl)methanesulfonamide]: the EC50 in assay [1] was 0.01 to 0.1 µM; in assay [4], 0.1 to 1 µM. Also, the IC50 in assay [2] and in assay [3] was 0.01 to 0.1 µM in each case.

For `COc1c(-c2ccc(/C=N/NS(C)(=O)=O)cc2)cc(N2CCCS2(=O)=O)cc1C(C)(C)C` [compound 45, (E)-N′-((3′-tert-butyl-5′-(2-(1,1-dioxidoisothiazolidin-2-yl))-2′ methoxybiphenyl-4-yl)methylene)methanesulfonylhydrazide], the EC50 in assay [1] was 0.1 to 1 µM; in assay [4], more than 1 µM. Moreover, the IC50 in assay [2] and in assay [3] was 0.1 to 1 µM each time.

For the molecule `COc1c(-c2ccc3cc(NS(C)(=O)=O)ccc3c2)cc(N2CCCS2(=O)=O)cc1C(C)(C)C` [compound 46, N-(6-(3-tert-butyl-5-(2-(1,1-dioxidoisothiazolidin-2-yl))-2-methoxyphenyl)naphthalene-2-yl)methanesulfonamide], the concentration giving a half-maximal response (EC50) in assay [1] lay within 0.01 to 0.1 µM; in assay [4], 0.1 to 1 µM. Moreover, the IC50 in assay [2] and in assay [3] was 0.01 to 0.1 µM throughout.

As to `COc1c(-c2ccc3cc(NS(C)(=O)=O)ccc3c2)cc(NC(C)=O)cc1C(C)(C)C` [compound 47, N-(3-tert-butyl-4-methoxy-5-(6-(methylsulfonamido)naphthalen-2-yl)phenyl)acetamide], the EC50 in assay [1] was 0.1 to 1 µM; in assay [4], more than 1 µM. Further, the IC50 in assay [2] is more than 1 µM; in assay [3] it was 0.1 to 1 µM.

In the case of `COc1c(Br)cc(-c2c[nH]c(=O)[nH]c2=O)cc1C(F)(F)F` [compound 48, 5-(3-bromo-4-methoxy-5-(trifluoromethyl)phenyl)pyrimidine-2,4(1H,3H)-dione], the EC50 in assay [1] and in assay [4] was more than 1 µM each time. Besides, the IC50 in assay [2] and in assay [3] was more than 1 µM in each case.

`COc1c(-c2ccc3cc(NS(C)(=O)=O)ccc3c2)cc(-c2c[nH]c(=O)[nH]c2=O)cc1C(F)(F)F` [compound 49, N-(6-(5-(2,4-dioxo-1,2,3,4-tetrahydropyrimidin-5-yl)-2-methoxy-3-(trifluoromethyl)phenyl)naphthalen-2-yl)methanesulfonamide]: the values for the EC50 in assay [1] and in assay [4] were not above 0.01 µM and 0.01 to 0.1 µM, respectively. Also, the half-inhibitory concentration (IC50) is 0.01 to 0.1 µM in assay [2] and less than 0.01 µM in assay [3].

Turning to `COc1c(/C=C/c2ccc(NS(C)(=O)=O)cc2)cc(-c2c[nH]c(=O)[nH]c2=O)cc1C(F)(F)F` [compound 50, (E)-N-(4-(5-(2,4-dioxo-1,2,3,4-tetrahydropyrimidin-5-yl)-2-methoxy-3-(trifluoromethyl)styryl)phenyl)methanesulfonamide], the concentration for a half-maximal effect (EC50) in assay [1] was 0.01 to 0.1 µM; in assay [4], 0.1 to 1 µM. Further, the half-maximal inhibitory concentration (IC50) in assay [2] and in assay [3] was 0.01 to 0.1 µM throughout.

As for `COc1c(-c2ccc3c(CNS(C)(=O)=O)csc3c2)cc(-c2c[nH]c(=O)[nH]c2=O)cc1C(F)(F)F` [compound 51, N-((6-(5-(2,4-dioxo-1,2,3,4-tetrahydropyrimidin-5-yl)-2-methoxy-3-(trifluoromethyl)phenyl)benzo[b]thiophen-3-yl)methyl)methanesulfonamide], the EC50 is 0.01 to 0.1 µM in assay [1] and 0.1 to 1 µM in assay [4]. Moreover, the IC50 is 0.01 to 0.1 µM in assay [2] and less than 0.01 µM in assay [3].

As to `COc1c(-c2ccc3c(c2)CC=C3CNS(C)(=O)=O)cc(-c2cn(S(C)(=O)=O)c(=O)[nH]c2=O)cc1C(F)(F)F` [compound 52, N-((6-(2-methoxy-5-(1-(methylsulfonyl)-2,4-dioxo-1,2,3,4-tetrahydropyrimidin-5-yl)-3-(trifluoromethyl)phenyl)-1H-inden-3-yl)methyl)methanesulfonamide], the EC50 is not above 0.01 µM in assay [1] and 0.1 to 1 µM in assay [4]. The half-maximal inhibitory concentration (IC50) in assay [2] and in assay [3] was 0.01 to 0.1 µM throughout.
